Test results: patent US10174202B2, “Dyes with phosphinic acid, phosphinate, phosphonate and phosphonamidate substituents as auxochromic groups and methods for preparing the same” (Max-Planck-Gesellschaft zur Foerderung der Wissenschaften …, priority 2017, dated 2019)
Several values for one entry are separate records, joined by “and”; a condition that tells them apart may be missing. Equal entries are not always repeated. Structures can show the parent of a compound that is named as a salt. Marks after values point to notes of the source that are not given here.

Assays:
[1] = Absorption spectroscopy (UV/Vis); format: physicochemical
Procedure: (§1) Absorption spectra were recorded with a Varian Cary 4000 UV-Vis double-beam spectrophotometer (Agilent Technologies, USA). For the determination of the absorption spectra, quartz cells with a 1 cm path length were used. Emission spectra and fluorescence quantum yield were obtained on a Quantaurus-QY Absolute PL quantum yield spectrometer C11347 (Hamamatsu Photonics, Japan) or on a Varian Cary Eclipse fluorescence spectrometer (Agilent Technologies, USA).

Fluorescence lifetime = format: physicochemical
[2] = Emission spectra and fluorescence quantum yield; format: physicochemical
Procedure: as §1

[3] = system: vimentin-HaloTag fusion protein in a living HeLa cell; assay: Confocal and STED imaging of vimentin-HaloTag in living cells; format: cell-based; set-up: key to verified as a label in STED microscopy: verified as a label in super-resolution microscopy based on stimulated emission depletion (STED with 775 nm STED laser)
Procedure: (§2) STED and confocal counterpart images were acquired using the commercially available two-color STED 775 quad scanning microscope from Abberior Instruments (Gottingen, Germany) equipped with an Olympus IX83 microscope stand and an Olympus UplanSApo 100×/1.4 OIL objective. Dyes were excited respective their excitation; the STED laser was pulsed at 775 nm.
(§3) For these experiments, STED optical microscopy was performed as indicated above.
The vimentin-HaloTag was labeled with 16-Halo (1 μM for 20 min at growth conditions, 10 min wash) and excited using a pulsed 594 nm laser. Fluorescence was detected in both available detection channels (605-625 nm, 655-715nm) and summed up for the final images. Scale bar: 4 μm; pixel dwell time: 10 μs; pixel size: 20 nm for both the STED and the confocal image. Each line was scanned four times, and the counts were accumulated.

[4] = system: tubulin filaments in a methanol-fixed Vero cell; assay: Confocal and STED imaging of immunolabelled tubulin filaments; format: cell-based; set-up: key to verified as a label in STED microscopy: verified as a label in super-resolution microscopy based on stimulated emission depletion (STED with 775 nm STED laser)
Procedure: as §2, §3
Tubulin was marked using a mouse monoclonal primary antibody against alpha-tubulin together with secondary antibody detection (sheep-anti-mouse conjugated with the dye 23-NHS). 23 was excited using a pulsed 485 nm laser. Fluorescence was detected in both available detection channels (605-625 nm, 655-715nm) and summed up for the final images. Scale bar: 4 μm; pixel dwell time: 10 μs; pixel size: 25 nm for both the STED and the confocal image. Each line in the STED channel was scanned twice, and the counts were accumulated.

| SMILES | Absorption max. ([1]; in aq. PBS, pH 7.4) | ε at absorption max. ([1]; in aq. PBS, pH 7.4) | Stability (Stability of the dyes) | Emission max. ([2]; in aq. PBS, pH 7.4) | QY (fluorescence quantum yield, Φfl) ([2]; in aq. PBS, pH 7.4) | Stokes shift ([2]; in aq. PBS, pH 7.4) | Absorption max. ([1]; in acetonitrile) | ε at absorption max. ([1]; in acetonitrile) | Stokes shift ([2]; in acetonitrile) | other results |
| --- | --- | --- | --- | --- | --- | --- | --- | --- | --- | --- |
| CN(C)c1ccc2c(P(=O)(Oc3ccccc3C(=O)[O-])N(C)C)c3ccc(=[N+](C)C)cc-3oc2c1 (centres unmarked) [Compound 9, 2-[[3,6-Bis(dimethylamino)-9H-xanthenylium-9yl](dimethylamino)phosphoryloxy]-benzoate] | 603 nm | 69000 M⁻¹ cm⁻¹ | moderate | 638 nm | 0.09 | 35 nm | – | – | – | Absorption max. ([1]; in methanol): 589 nm; ε at absorption max. ([1]; in methanol): 49000 M⁻¹ cm⁻¹; fluorescence lifetime (Fluorescence lifetime; in aq. PBS, pH 7.4): 1.88 ns; Emission max. ([2]; in methanol): 622 nm; QY (fluorescence quantum yield, Φfl) ([2]; in methanol): 0.36; Stokes shift ([2]; in methanol): 33 nm |
| CCOP(=O)(c1c2ccc(=[N+](C)C)cc-2oc2cc(N(C)C)ccc12)N(C)CCC(=O)O.O=C([O-])C(F)(F)F (centres unmarked) [Compound 10] | 625 nm | 13816 M⁻¹ cm⁻¹ | – | 670 nm | 0.15 | 45 nm | 615 nm | 22224 M⁻¹ cm⁻¹ | 37 nm | stability of solutions (Stability of the dyes; protic solvents (MeOH, H2O), particularly in the presence of acids, forms compound 11): spontaneously decompose; Emission max. ([2]; in acetonitrile): 652 nm; QY (fluorescence quantum yield, Φfl) ([2]; in acetonitrile): 0.46 |
| CCN(CC)CC.CN(CCCCCC(=O)[O-])C(=O)CCP(=O)(O)c1c2ccc(N(C)C)cc2[o+]c2cc(N(C)C)ccc12 [Compound 16, Triethylammonium 6-[3-[[3,6-bis(dimethylamino)-9H-xanthenylium-9-yl]oxidophosphoryl]-N-methylpropanamido]hexanoate] | – | – | – | – | – | – | – | – | – | ε at absorption max. ([1]; pH 7.4): 10750 M⁻¹ cm⁻¹; Emission max. ([2]; pH 7.4): 636 nm and 636 ^ (0.30)^b nm; Stokes shift ([2]; pH 7.4): 33^b nm; verified as a label in STED microscopy ([3]; STED with 775 nm STED laser): good^f |
| CN(C)c1ccc2c(P(=O)([O-])CCC(=O)NCCOCCOCCCCCCCl)c3ccc(=[N+](C)C)cc-3oc2c1 [Compound 16-Halo, 3-[[2[2-(6-chlorohexyloxy)ethoxy]ethyl]amino]-3-oxopropyl[6-(dimethylamino)-3-(dimethyliminio)-3H-xanthen-9-yl]phosphinate] | – | – | – | – | – | – | – | – | – | labelling of vimentin-HaloTag ([3]; 1 μM for 20 min at growth conditions, 10 min wash, excitation 594 nm): labeled |
| CC[N+](CC)=c1ccc2c(P(=O)(OC)OC)c3c(oc-2c1)-c1ccc(N(C)C)cc1CC3.O=C([O-])C(F)(F)F [Compound 20, 10-(Diethylamino)-7-(dimethoxyphosphoryl)-3-(dimethylamino)-6,7-dihydro-5H-benzo[c]xanthenylium trifluoroacetate] | 693 nm | 29000 M⁻¹ cm⁻¹ | – | 754 nm | 0.02 | 61 nm | 681 nm | 40000 M⁻¹ cm⁻¹ | 56 nm | fluorescence lifetime (Fluorescence lifetime; in acetonitrile): 1.50 ns; Emission max. ([2]; in acetonitrile, trifluoroacetate): 737 nm and 754 nm |
| COP(=O)([c+]1c2ccc(N(C)C)cc2sc2cc(N(C)C)ccc21)N(C(C)C)C(C)C.O=C([O-])C(F)(F)F (centres unmarked) [Compound 21, 9-[(Diisopropylamino)(methoxy)phosphoryl]-3,6-bis(dimethylamino)-9H-thioxanthen-9-ylium trifluoroacetate] | – | – | moderate | – | – | – | 654 nm | 64000 M⁻¹ cm⁻¹ | 74^a nm | fluorescence lifetime (Fluorescence lifetime; in acetonitrile): 0.77 ns; Emission max. ([2]; in acetonitrile): 728 nm; QY (fluorescence quantum yield, Φfl) ([2]; in acetonitrile): 0.10 |
| CN(C)c1ccc2c([PH](=O)O)c3ccc(N(C)C)cc3[n+](CCCC(=O)O)c2c1.O=C([O-])C(F)(F)F [Compound 23, 10-(3-Carboxypropyl)-3,6-bis(dimethylamino)-9-(hydroxyhydrophosphoryl)acridinium trifluoroacetate] | 535 nm | 38000 M⁻¹ cm⁻¹ | – | – | 0.14 and 0.10 | – | – | – | – | Absorption max. ([1]; in methanol): 527 nm; ε at absorption max. ([1]; in methanol): 67000 M⁻¹ cm⁻¹; fluorescence lifetime (Fluorescence lifetime; in aq. PBS, pH 7.4): 1.36 ns; Emission max. ([2]; in methanol): 579 nm; QY (fluorescence quantum yield, Φfl) ([2]; in methanol): 0.75; verified as a label in STED microscopy ([4]; STED with 775 nm STED laser): f |
| CN(C)c1ccc2c([PH](=O)[O-])c3ccc(N(C)C)cc3[n+](CCCC(=O)ON3C(=O)CCC3=O)c2c1 [Compound 23-NHS, [10-(3-Carboxypropyl)-3,6-bis(dimethylamino)acridinium-9-yl]phosphinate NHS ester] | – | – | – | – | – | – | – | – | – | labelling of tubulin via secondary antibody conjugate ([4]; sheep-anti-mouse antibody conjugated with the dye, excitation 485 nm): marked |
| CC(C)OP(=O)(OC(C)C)C1=C2C=CC(=[N+](C)C)C=C2C(C)(C)c2cc(N(C)C)ccc21 [Compound 24, 9-(Diisopropoxyphosphoryl)-3,6-bis(dimethylamino)-10,10-dimethyl-9,10-dihydro-anthracenylium trifluoromethanesulfonate] | – | – | moderate | – | – | – | – | – | – | – |
| C=CCOP(=O)(C1=C2C=CC(=[N+](C)C)C=C2C(C)(C)c2cc(N(C)C)ccc21)N(C(C)C)C(C)C (centres unmarked) [Compound 25, 9-[(Allyloxy)(diisopropylamino)phosphoryl]-3,6-bis(dimethylamino)-10,10-dimethyl-9,10-dihydroanthracenylium trifluoromethanesulfonate] | – | – | poor | – | – | – | – | – | – | – |
| C=CCOP(=O)(C1=c2cc3c(cc2C(C)(C)c2cc4c(cc21)CCCN4CCOC)=[N+](CCOC)CCC3)N(C(C)C)C(C)C (centres unmarked) [Compound 26, 6-[(Allyloxy)(diisopropylamino)phosphoryl]-1,11-bis(2-methoxyethyl)-13,13-dimethyl-1,2,3,4,6,8,9,10,11,13-decahydrobenzo[1,2-g:5,4-g′]diquinolin-6-ylium trifluoroacetate] | 734 nm | 34700 M⁻¹ cm⁻¹ | poor | 860 nm | 0.05 | 126 nm | 724 nm | 46700 M⁻¹ cm⁻¹ | 88 nm | Emission max. ([2]; in acetonitrile): 812 nm; QY (fluorescence quantum yield, Φfl) ([2]; in acetonitrile): 0.08 |
| COP(=O)([C+]1c2ccc(N(C)C)cc2-c2cccc3c(N(C)C)ccc1c23)N(C(C)C)C(C)C.O=C([O-])C(F)(F)F (centres unmarked) [Compound 28, 7-[(Diisopropylamino)(methoxy)phosphoryl]-4,10-bis(dimethylamino)-7H-benzo[de]anthracen-7-ylium trifluoroacetate] | 644 nm | 7600 M⁻¹ cm⁻¹ | poor | 782 nm | 0.04 | 138^b nm | – | – | – | – |
